The record followed here is patent US20240228572A1 (i2o Therapeutics, Inc., priority 2020, published 2024).

The term EC50 denotes the midpoint of the concentration-response curve. Read a high EC50 as lower potency in that assay.

*1 amine or outer side, *2 acyl side, *3 side chain or, on linkers, in order; H or OH if unused. Where a SMILES comes first, the peptide text is derived from it. Bridges are numbered along the chain shown (N, C = ends). Side-chain parts run from the residue outwards. [ ]: non-standard residue; d: D form. The star is where a group is joined. C20 diacid = O=C(O)CCCCCCCCCCCCCCCCCCC(=O)*; γGlu = O=C(O)[C@H](CCC(=O)[*:2])N[*:1]; AEEA = NCCOCCOCC(=O)O; Aib = CC(C)(N)C(=O)O

The target of assay [1] is T1, human Glucagon receptor (GCGR) (Homo sapiens, UniProt P47871).
T1 construct: A cDNA fragment encoding the full-length open reading frame of the human GCGR; expressed in transfected cells; host or cells: CHO-K1, pcDNA3.1+, Lipofectamine 2000
T1 sequence (P47871 26-477): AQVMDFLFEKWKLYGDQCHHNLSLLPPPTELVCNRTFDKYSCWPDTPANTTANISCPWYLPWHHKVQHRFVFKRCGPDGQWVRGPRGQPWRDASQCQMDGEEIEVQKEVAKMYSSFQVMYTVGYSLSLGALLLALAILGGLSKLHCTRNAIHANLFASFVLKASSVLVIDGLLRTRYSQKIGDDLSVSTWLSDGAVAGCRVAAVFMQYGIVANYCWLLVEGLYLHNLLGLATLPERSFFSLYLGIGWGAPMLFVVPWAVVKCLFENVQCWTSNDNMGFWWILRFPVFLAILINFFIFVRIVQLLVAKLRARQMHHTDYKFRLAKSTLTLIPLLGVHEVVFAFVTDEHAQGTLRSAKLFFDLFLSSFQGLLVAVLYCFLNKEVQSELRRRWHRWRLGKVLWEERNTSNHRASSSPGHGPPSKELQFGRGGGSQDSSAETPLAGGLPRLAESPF
Description: cAMP accumulation assay, CHO-K1 cells expressing human GCGR. The conditions noted are these: mean pEC50, Table 10. Type of assay: cell-based.

In assay [2] the target is T2, human GLP-1 receptor (GLP-1R) (Homo sapiens, UniProt P43220).
T2 construct: expressed in transfected cells
T2 sequence (P43220 24-463): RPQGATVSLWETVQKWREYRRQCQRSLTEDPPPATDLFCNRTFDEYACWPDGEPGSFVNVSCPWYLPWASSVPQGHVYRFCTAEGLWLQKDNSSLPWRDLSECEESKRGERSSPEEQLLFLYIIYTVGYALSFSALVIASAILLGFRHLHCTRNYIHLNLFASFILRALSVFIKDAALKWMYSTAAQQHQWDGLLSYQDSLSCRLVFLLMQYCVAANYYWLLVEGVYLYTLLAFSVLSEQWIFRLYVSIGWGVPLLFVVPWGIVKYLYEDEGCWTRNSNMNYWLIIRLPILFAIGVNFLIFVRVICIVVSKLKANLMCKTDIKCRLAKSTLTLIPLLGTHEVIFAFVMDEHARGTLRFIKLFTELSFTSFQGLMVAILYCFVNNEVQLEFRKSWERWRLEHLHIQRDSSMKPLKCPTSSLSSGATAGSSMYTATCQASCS
Description: cAMP accumulation assay, CHO-K1 cells stably expressing human GLP-1R. Type of assay: cell-based. The note with it: cAMP accumulation, mean pEC50, Table 10. A general note: Cyclic AMP is a second messenger, typically raised through Gs and lowered through Gi signalling.

In the case of `CC(C)C[C@H](NC(=O)[C@H](Cc1ccc(O)cc1)NC(=O)[C@H](CCCCN)NC(=O)[C@H](CO)NC(=O)[C@H](Cc1ccc(O)cc1)NC(=O)[C@H](CC(=O)O)NC(=O)[C@H](CO)NC(=O)[C@@H](NC(=O)[C@H](Cc1ccccc1)NC(=O)[C@@H](NC(=O)CNC(=O)[C@H](Cc1c[nH]cn1)NC(=O)[C@H](CO)NC(=O)[C@@H](N)Cc1ccc(O)cc1)[C@@H](C)O)[C@@H](C)O)C(=O)N[C@@H](CC(=O)O)C(=O)N[C@@H](CCCCNC(=O)CC[C@H](NC(=O)CC[C@H](NC(=O)COCCOCCNC(=O)CCCCCCCCCCCCCCCCCCC(=O)O)C(=O)O)C(=O)O)C(=O)N[C@@H](CCCCN)C(=O)N[C@@H](Cc1ccc(O)cc1)C(=O)N[C@@H](C)C(=O)N[C@@H](CCC(N)=O)C(=O)N[C@@H](CCC(=O)O)C(=O)N[C@@H](Cc1ccccc1)C(=O)N[C@H](C(=O)NC(C)(C)C(=O)N[C@@H](Cc1c[nH]c2ccccc12)C(=O)N[C@@H](CC(C)C)C(=O)N[C@@H](CCC(=O)O)C(=O)N(C)[C@@H](CCC(=O)O)C(=O)N[C@@H](CCC(=O)O)C(=O)N1CCC[C@H]1C(=O)N[C@@H](CO)C(=O)N[C@@H](CO)C(=O)NCC(=O)N[C@@H](C)C(=O)N1CCC[C@H]1C(=O)N1CCC[C@H]1C(=O)N1CCC[C@H]1C(=O)N[C@@H](CO)C(=O)O)C(C)C` [Compound A18], the EC50 is 39.8 pM in assay [1] and greater than 1000 pM in assay [2].

On to `CC(C)C[C@H](NC(=O)[C@H](Cc1ccc(O)cc1)NC(=O)[C@H](CCCCN)NC(=O)[C@H](CO)NC(=O)[C@H](Cc1ccc(O)cc1)NC(=O)[C@H](CC(=O)O)NC(=O)[C@H](CO)NC(=O)[C@@H](NC(=O)[C@H](Cc1ccccc1)NC(=O)[C@@H](NC(=O)CNC(=O)[C@H](Cc1c[nH]cn1)NC(=O)[C@H](CO)NC(=O)[C@@H](N)Cc1ccc(O)cc1)[C@@H](C)O)[C@@H](C)O)C(=O)N[C@@H](CC(=O)O)C(=O)N[C@@H](CCCCNC(=O)CC[C@H](NC(=O)CC[C@H](NC(=O)COCCOCCNC(=O)CCCCCCCCCCCCCCCCCCC(=O)O)C(=O)O)C(=O)O)C(=O)N[C@@H](CCCCN)C(=O)N[C@@H](Cc1ccc(O)cc1)C(=O)N[C@@H](C)C(=O)N[C@@H](CCCCN)C(=O)N[C@@H](CCC(=O)O)C(=O)N[C@@H](Cc1ccccc1)C(=O)N[C@H](C(=O)NC(C)(C)C(=O)N[C@@H](Cc1c[nH]c2ccccc12)C(=O)N[C@@H](CC(C)C)C(=O)N[C@@H](CCC(=O)O)C(=O)N[C@@H](CO)C(=O)N[C@@H](CCC(=O)O)C(=O)N1CCC[C@H]1C(=O)N[C@@H](CO)C(=O)N[C@@H](CO)C(=O)NCC(=O)N[C@@H](C)C(=O)N1CCC[C@H]1C(=O)N1CCC[C@H]1C(=O)N1CCC[C@H]1C(=O)N[C@@H](CO)C(=O)O)C(C)C` [Compound A22] (H-YSHGTFTSDYSKYLDK([γGlu-γGlu-AEEA-C20 diacid])KYAKEFV[Aib]WLESEPSSGAPPPS-OH; N-terminus assumed), for which the EC50 was 2 pM in assay [1] and greater than 1000 pM in assay [2].

For the molecule `CC(C)C[C@H](NC(=O)[C@H](Cc1ccc(O)cc1)NC(=O)[C@H](CCCCN)NC(=O)[C@H](CO)NC(=O)[C@H](Cc1ccc(O)cc1)NC(=O)[C@H](CC(=O)O)NC(=O)[C@H](CO)NC(=O)[C@@H](NC(=O)[C@H](Cc1ccccc1)NC(=O)[C@@H](NC(=O)CNC(=O)[C@H](Cc1c[nH]cn1)NC(=O)[C@H](CO)NC(=O)[C@@H](N)Cc1ccc(O)cc1)[C@@H](C)O)[C@@H](C)O)C(=O)N[C@@H](CC(=O)O)C(=O)N[C@@H](CCCCNC(=O)CC[C@H](NC(=O)CC[C@H](NC(=O)COCCOCCNC(=O)CCCCCCCCCCCCCCCCCCC(=O)O)C(=O)O)C(=O)O)C(=O)N[C@@H](CCCCN)C(=O)N[C@@H](Cc1ccc(O)cc1)C(=O)N[C@@H](C)C(=O)N[C@@H](CCC(=O)O)C(=O)N[C@@H](CCC(=O)O)C(=O)N[C@@H](Cc1ccccc1)C(=O)N[C@H](C(=O)NC(C)(C)C(=O)N[C@@H](Cc1c[nH]c2ccccc12)C(=O)N[C@@H](CC(C)C)C(=O)N[C@@H](CCC(=O)O)C(=O)N[C@@H](CO)C(=O)N[C@@H](CCC(=O)O)C(=O)N1CCC[C@H]1C(=O)N[C@@H](CO)C(=O)N[C@@H](CO)C(=O)NCC(=O)N[C@@H](C)C(=O)N1CCC[C@H]1C(=O)N1CCC[C@H]1C(=O)N1CCC[C@H]1C(=O)N[C@@H](CO)C(=O)O)C(C)C` [Compound A23] (H-YSHGTFTSDYSKYLDK([γGlu-γGlu-AEEA-C20 diacid])KYAEEFV[Aib]WLESEPSSGAPPPS-OH), the EC50 in assay [1] is 3.16 pM; in assay [2] it was greater than 1000 pM.

As for `CC(C)C[C@H](NC(=O)[C@H](Cc1ccc(O)cc1)NC(=O)[C@H](CCCCN)NC(=O)[C@H](CO)NC(=O)[C@H](Cc1ccc(O)cc1)NC(=O)[C@H](CC(=O)O)NC(=O)[C@H](CO)NC(=O)[C@@H](NC(=O)[C@H](Cc1ccccc1)NC(=O)[C@@H](NC(=O)CNC(=O)[C@H](Cc1c[nH]cn1)NC(=O)[C@H](CO)NC(=O)[C@@H](N)Cc1ccc(O)cc1)[C@@H](C)O)[C@@H](C)O)C(=O)N[C@@H](CC(=O)O)C(=O)N[C@@H](CCCCNC(=O)CC[C@H](NC(=O)CC[C@H](NC(=O)COCCOCCNC(=O)CCCCCCCCCCCCCCCCCCC(=O)O)C(=O)O)C(=O)O)C(=O)N[C@@H](CCCCN)C(=O)N[C@@H](Cc1ccc(O)cc1)C(=O)N[C@@H](C)C(=O)N[C@H]1CCC(=O)NCCCC[C@@H](C(=O)N[C@@H](Cc2c[nH]c3ccccc23)C(=O)N[C@@H](CC(C)C)C(=O)N[C@@H](CCC(=O)O)C(=O)N[C@@H](CCC(=O)O)C(=O)N[C@@H](CCC(=O)O)C(=O)N2CCC[C@H]2C(=O)N[C@@H](CO)C(=O)N[C@@H](CO)C(=O)NCC(=O)N[C@@H](C)C(=O)N2CCC[C@H]2C(=O)N2CCC[C@H]2C(=O)N2CCC[C@H]2C(=O)N[C@@H](CO)C(=O)O)NC(=O)[C@H](C(C)C)NC(=O)[C@H](Cc2ccccc2)NC(=O)[C@H](CCCCN)NC1=O` [Compound A25] (H-YSHGTFTSDYSKYLDK([γGlu-γGlu-AEEA-C20 diacid])KYAEKFVKWLEEEPSSGAPPPS-OH; lactam 20-24), the concentration for a half-maximal effect (EC50) in assay [1] was 1.26 pM; in assay [2], greater than 1000 pM.

On to `CC(C)C[C@H](NC(=O)[C@H](Cc1ccc(O)cc1)NC(=O)[C@H](CCCCN)NC(=O)[C@H](CO)NC(=O)[C@H](Cc1ccc(O)cc1)NC(=O)[C@H](CC(=O)O)NC(=O)[C@H](CO)NC(=O)[C@@H](NC(=O)[C@H](Cc1ccccc1)NC(=O)[C@@H](NC(=O)CNC(=O)[C@H](Cc1c[nH]cn1)NC(=O)[C@H](CO)NC(=O)[C@@H](N)Cc1ccc(O)cc1)[C@@H](C)O)[C@@H](C)O)C(=O)N[C@@H](CC(=O)O)C(=O)N[C@@H](CCCCNC(=O)CC[C@H](NC(=O)CC[C@H](NC(=O)COCCOCCNC(=O)CCCCCCCCCCCCCCCCCCC(=O)O)C(=O)O)C(=O)O)C(=O)N[C@@H](CCCCN)C(=O)N[C@@H](Cc1ccc(O)cc1)C(=O)N[C@@H](C)C(=O)N[C@H]1CCC(=O)NCCCC[C@@H](C(=O)N[C@@H](Cc2c[nH]c3ccccc23)C(=O)N[C@@H](CC(C)C)C(=O)N[C@@H](CCC(=O)O)C(=O)N[C@@H](CCCCN)C(=O)N[C@@H](CCC(=O)O)C(=O)N2CCC[C@H]2C(=O)N[C@@H](CO)C(=O)N[C@@H](CO)C(=O)NCC(=O)N[C@@H](C)C(=O)N2CCC[C@H]2C(=O)N2CCC[C@H]2C(=O)N2CCC[C@H]2C(=O)N[C@@H](CO)C(=O)O)NC(=O)[C@H](C(C)C)NC(=O)[C@H](Cc2ccccc2)NC(=O)[C@H](CCCCN)NC1=O` [Compound A26] (H-YSHGTFTSDYSKYLDK([γGlu-γGlu-AEEA-C20 diacid])KYAEKFVKWLEKEPSSGAPPPS-OH; lactam 20-24; N-terminus assumed), for which the results for the EC50 in assay [1] and in assay [2] were 7.94 pM and greater than 1000 pM, respectively.

As to `CC(C)C[C@H](NC(=O)[C@H](Cc1ccc(O)cc1)NC(=O)[C@H](CCCCN)NC(=O)[C@H](CO)NC(=O)[C@H](Cc1ccc(O)cc1)NC(=O)[C@H](CC(=O)O)NC(=O)[C@H](CO)NC(=O)[C@@H](NC(=O)[C@H](Cc1ccccc1)NC(=O)[C@@H](NC(=O)CNC(=O)[C@H](Cc1c[nH]cn1)NC(=O)[C@H](CO)NC(=O)[C@@H](N)Cc1ccc(O)cc1)[C@@H](C)O)[C@@H](C)O)C(=O)N[C@@H](CC(=O)O)C(=O)N[C@@H](CCCCNC(=O)CC[C@H](NC(=O)CC[C@H](NC(=O)COCCOCCNC(=O)CCCCCCCCCCCCCCCCCCC(=O)O)C(=O)O)C(=O)O)C(=O)N[C@@H](CCCCN)C(=O)N[C@@H](Cc1ccc(O)cc1)C(=O)N[C@@H](C)C(=O)N[C@H]1CCC(=O)NCCCC[C@@H](C(=O)N[C@@H](Cc2c[nH]c3ccccc23)C(=O)N[C@@H](CC(C)C)C(=O)N[C@@H](CCC(=O)O)C(=O)N[C@@H](CC(N)=O)C(=O)N[C@@H](CCC(=O)O)C(=O)N2CCC[C@H]2C(=O)N[C@@H](CO)C(=O)N[C@@H](CO)C(=O)NCC(=O)N[C@@H](C)C(=O)N2CCC[C@H]2C(=O)N2CCC[C@H]2C(=O)N2CCC[C@H]2C(=O)N[C@@H](CO)C(=O)O)NC(=O)[C@H](C(C)C)NC(=O)[C@H](Cc2ccccc2)NC(=O)[C@H](CCCCN)NC1=O` [Compound A27] (H-YSHGTFTSDYSKYLDK([γGlu-γGlu-AEEA-C20 diacid])KYAEKFVKWLENEPSSGAPPPS-OH; lactam 20-24; N-terminus assumed), the EC50 in assay [1] is 1 pM; in assay [2], greater than 1000 pM.
